According to the supplement of paper PMC11061612:

How the values were obtained:
[1] = system: CTV-1 (T-Lymphoblastic Leukemia); assay: Bliss excess, mean over the matrix (fraction); higher = more synergy
Method in brief: (§1)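 Bliss excess equals the observed combination effect minus the expected value EA + EB − EA·EB, where EA and EB are the effects of each agent alone. Combination Emax is the second-highest inhibition within the matrix. Inhibition was scaled from CellTiter-Glo 2.0 luminescence, with 0 set by vehicle wells and 1 by blank wells, after 72 hours of two-drug dosing of cells plated in 1536-well plates.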

[2] = system: G-292-Clone-A141B1 (Osteosarcoma); assay: as above
Method in brief: as §1

[3] = system: KARPAS-1106P (B-Cell Non-Hodgkin's Lymphoma); assay: as above
Method in brief: as §1

[4] = system: KATOIII (Gastric Carcinoma); assay: as above
Method in brief: as §1

[5] = system: KM-H2 (Hodgkin's Lymphoma); assay: as above
Method in brief: as §1

[6] = system: NCI-H1694 (Small Cell Lung Carcinoma); assay: as above
Method in brief: as §1

NCI-H2595 (Mesothelioma) [7] = assay: as above
Method in brief: as §1

RH-1 (Ewing's Sarcoma) = assay: as above
Method in brief: as §1

[8] = system: SUIT-2 (Pancreatic Carcinoma); assay: as above
Method in brief: as §1

[9] = system: SW1990 (Pancreatic Carcinoma); assay: as above
Method in brief: as §1

[10] = system: TGBC24TKB (Biliary Tract Carcinoma); assay: as above
Method in brief: as §1

[11] = system: CTV-1 (T-Lymphoblastic Leukemia); assay: combination Emax (second highest fraction inhibited in the dose matrix, 72 h); higher = more inhibition; extreme values may be limits of the assay
Method in brief: as §1

[12] = system: DMS-273 (Small Cell Lung Carcinoma); assay: as above
Method in brief: as §1

[13] = system: G-292-Clone-A141B1 (Osteosarcoma); assay: as above
Method in brief: as §1

[14] = system: HCC2157 (Breast Carcinoma); assay: as above
Method in brief: as §1

IGR-1 (Melanoma) = assay: as above
Method in brief: as §1

[15] = system: KARPAS-1106P (B-Cell Non-Hodgkin's Lymphoma); assay: as above
Method in brief: as §1

[16] = system: NALM-6 (B-Lymphoblastic Leukemia); assay: as above
Method in brief: as §1

NCI-H2595 (Mesothelioma) [17] = assay: as above
Method in brief: as §1

[18] = system: SW1088 (Low Grade Glioma); assay: as above
Method in brief: as §1

| SMILES | Bliss excess [1] | Bliss excess [2] | Bliss excess [3] | Bliss excess [4] | Bliss excess [5] | Bliss excess [6] | Bliss excess (NCI-H2595 (Mesothelioma) [7]) | Bliss excess (RH-1 (Ewing's Sarcoma)) | Bliss excess [8] | Bliss excess [9] | Bliss excess [10] | combination Emax [11] | combination Emax [12] | combination Emax [13] | combination Emax [14] | combination Emax (IGR-1 (Melanoma)) | combination Emax [15] | combination Emax [16] | combination Emax (NCI-H2595 (Mesothelioma) [17]) | combination Emax [18] |
| --- | --- | --- | --- | --- | --- | --- | --- | --- | --- | --- | --- | --- | --- | --- | --- | --- | --- | --- | --- | --- |
| CC(=O)c1c(C)c2cnc(Nc3ccc(N4CCNCC4)cn3)nc2n(C2CCCC2)c1=O [Palbociclib] + Cn1cnc2c(F)c(Nc3ccc(Br)cc3Cl)c(C(=O)NOCCO)cc21 [Selumetinib] (first compound max 10 µM, 7x7, partner max 10 µM) | 0.0496 | -0.0291 | 0.0399 | 0.0393 | 0.0036 | -0.0989 | -0.0429 | -0.0379 | 0.0481 | -0.0228 | 0.0495 | 0.905 | 0.351 | 0.12 | 0.394 | 0.919 | 0.601 | 0.876 | 0.155 | 0.358 |
| CCN(CCO)CCCOc1ccc2c(Nc3cc(CC(=O)Nc4cccc(F)c4)[nH]n3)ncnc2c1 [AZD2811] + C=CCn1c(=O)c2cnc(Nc3ccc(N4CCN(C)CC4)cc3)nc2n1-c1cccc(C(C)(C)O)n1 [AZD1775] (first compound max 1 µM, partner max 1 µM) | 0.0014 | -0.0368 | -0.0241 | -0.0459 | 0.0339 | 0.0223 | -0.0509 | -0.0163 | -0.017 | -0.0403 | -0.0717 | 0.969 | 0.827 | 0.152 | 0.854 | 0.314 | 0.842 | 0.915 | 0.0802 | 0.47 |
| CN(C)CCCOc1ccc(-c2ccc3ncc4c(c3c2)n(C2CCOCC2)c(=O)n4C)cn1 [AZD0156] + C=CCn1c(=O)c2cnc(Nc3ccc(N4CCN(C)CC4)cc3)nc2n1-c1cccc(C(C)(C)O)n1 [AZD1775] (first compound max 1 µM, partner max 1 µM) | -0.0169 | -0.0538 | -0.0384 | -0.064 | 0.0303 | -0.0303 | -0.062 | 0.0329 | 0.0011 | -0.0358 | -0.0224 | 0.962 | 0.589 | 0.197 | 0.832 | 0.223 | 0.874 | 0.906 | 0.12 | 0.425 |
| Cc1c2c(nn1C)CSCc1cc(n(C)n1)CSc1cc(c3ccccc3c1)OCCCc1c(C(=O)O)n(C)c3c-2c(Cl)ccc13 [AZD5991] + CC1(C)CCC(CN2CCN(c3ccc(C(=O)NS(=O)(=O)c4ccc(NCC5CCOCC5)c([N+](=O)[O-])c4)c(Oc4cnc5[nH]ccc5c4)c3)CC2)=C(c2ccc(Cl)cc2)C1 [Venetoclax] (first compound max 1 µM, 7x7, partner max 1 µM) | -0.0011 | -0.0292 | -0.0146 | -0.0176 | -0.0094 | 0.076 | -0.0384 | 0.0491 | -0.0287 | -0.0317 | -0.0051 | 0.13 | 0.964 | 0.184 | 0.985 | 0.969 | 0.935 | 0.949 | 0.267 | 0.248 |
| CC1(C)CCC(CN2CCN(c3ccc(C(=O)NS(=O)(=O)c4ccc(NCC5CCOCC5)c([N+](=O)[O-])c4)c(Oc4cnc5[nH]ccc5c4)c3)CC2)=C(c2ccc(Cl)cc2)C1 [Venetoclax] + CN(C)CCCOc1ccc(-c2ccc3ncc4c(c3c2)n(C2CCOCC2)c(=O)n4C)cn1 [AZD0156] (first compound max 1 µM, 7x7, partner max 1 µM) | -0.0103 | -0.0367 | 0.0261 | -0.0156 | -0.0012 | -0.0001 | 0.0103 | -0.0098 | 0.0031 | -0.0056 | 0.0307 | 0.0786 | 0.355 | 0.273 | 0.377 | 0.211 | 0.552 | 0.89 | 0.177 | 0.238 |
| CCc1c2c(nc3ccc(O)cc13)-c1cc3c(c(=O)n1C2)COC(=O)[C@]3(O)CC [SN-38] + CN(C)CCCOc1ccc(-c2ccc3ncc4c(c3c2)n(C2CCOCC2)c(=O)n4C)cn1 [AZD0156] (first compound max 0.3 µM, 7x7, partner max 1 µM) | 0.0414 | -0.0508 | -0.0346 | -0.0305 | 0.0794 | -0.0333 | -0.0399 | 0.0845 | 0.0446 | -0.0091 | 0.0476 | 1 | 0.802 | 0.213 | 0.969 | 0.497 | 0.901 | 1 | 0.176 | 0.54 |
| CN(C)CCCOc1ccc(-c2ccc3ncc4c(c3c2)n(C2CCOCC2)c(=O)n4C)cn1 [AZD0156] + C[C@@H]1COCCN1C2=NC(=NC(=C2)C3(CC3)[S@](=N)(=O)C)C4=C5C=CNC5=NC=C4 [AZD6738] (first compound max 1 µM, 7x7, partner max 10 µM) | -0.0115 | -0.0091 | 0.0462 | -0.0207 | 0.0658 | 0.0229 | -0.0438 | 0.0731 | 0.0103 | -0.0202 | -0.0165 | 0.829 | 0.834 | 0.263 | 0.955 | 0.523 | 0.752 | 0.903 | 0.12 | 0.57 |
| C[C@@H](c1ccc2nccn2c1)n1nnc2ncc(-c3cnn(C)c3)nc21 [Savolitinib] + Cc1c2c(nn1C)CSCc1cc(n(C)n1)CSc1cc(c3ccccc3c1)OCCCc1c(C(=O)O)n(C)c3c-2c(Cl)ccc13 [AZD5991] (first compound max 1 µM, 7x7, partner max 1 µM) | -0.0223 | -0.0381 | -0.0518 | -0.0149 | -0.0286 | 0.0027 | -0.052 | 0.0031 | -0.0224 | -0.0306 | -0.029 | 0.113 | 0.933 | 0.138 | 0.978 | 0.223 | 0.734 | 0.226 | 0.302 | 0.261 |
